From the supplement of paper PMC10307832

What was measured:
Assay in all cases: relative viability (nuclei count vs DMSO), 5 days (fraction); higher = more cells survive
[1] = system: ChaGo-K-1
Procedure, shortened: (§1)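 Lung cancer cell lines, seeded in 1536-well plates, were treated the following day by pin tool with a single drug or with five library-drug doses (not always all listed) in √10 steps on top of a fixed anchor-drug dose. Cells were fixed and nuclei stained in one step after 5 days, and nuclei were counted. Relative viability is the nuclei count for treated wells divided by that for vehicle wells, reported as medians of duplicate plates.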

[2] = system: HCC-827
Procedure, shortened: as §1

[3] = system: HCC-78
Procedure, shortened: as §1

[4] = system: NCI-H2023
Procedure, shortened: as §1

[5] = system: NCI-H1792
Procedure, shortened: as §1

[6] = system: NCI-H727
Procedure, shortened: as §1

[7] = system: NCI-H2342
Procedure, shortened: as §1

[8] = system: NCI-H2170
Procedure, shortened: as §1

[9] = system: NCI-H1437
Procedure, shortened: as §1

[10] = system: NCI-H2126
Procedure, shortened: as §1

[11] = system: NCI-H596
Procedure, shortened: as §1

`COCC1(CO)C(=O)C2CCN1CC2` (stereo not drawn) [PRIMA-1MET] + COc1cccc2cc(-c3nc([C@H]4CC[C@H](C(=O)O)CC4)n4ncnc(N)c34)[nH]c12 [OSI-027] (partner 0.5 µM) gave a relative viability ([1]; first compound 0.2 µM) of 0.581, a relative viability ([1]; first compound 0.6325 µM) of 0.518 and a relative viability ([1]; first compound 2 µM) of 0.522. For the same compound, the relative viability ([1]; first compound 6.325 µM) was 0.53, the relative viability ([1]; first compound 20 µM) was 0.448 and the relative viability ([2]; first compound 0.2 µM) was 0.694. The relative viability ([2]; first compound 0.6325 µM) was 0.668, the relative viability ([2]; first compound 2 µM) was 0.625 and the relative viability ([2]; first compound 6.325 µM) was 0.784. For the same compound, the relative viability ([2]; first compound 20 µM) was 0.748, the relative viability ([3]; first compound 0.2 µM) was 0.385 and the relative viability ([3]; first compound 0.6325 µM) was 0.345. It also gave a relative viability ([3]; first compound 6.325 µM) of 0.339, a relative viability ([3]; first compound 20 µM) of 0.199 and a relative viability ([4]; first compound 0.2 µM) of 0.453. It also gave a relative viability ([4]; first compound 0.6325 µM) of 0.366, a relative viability ([4]; first compound 2 µM) of 0.363 and a relative viability ([4]; first compound 6.325 µM) of 0.4. For the same compound, the relative viability ([4]; first compound 20 µM) was 0.241, the relative viability ([5]; first compound 0.2 µM) was 0.683 and the relative viability ([5]; first compound 0.6325 µM) was 0.693. For the same compound, the relative viability ([5]; first compound 2 µM) was 0.635, the relative viability ([5]; first compound 6.325 µM) was 0.734 and the relative viability ([5]; first compound 20 µM) was 0.802. For the same compound, the relative viability ([6]; first compound 0.2 µM) was 0.357, the relative viability ([6]; first compound 0.6325 µM) was 0.371 and the relative viability ([6]; first compound 2 µM) was 0.498. The relative viability ([6]; first compound 6.325 µM) was 0.536, the relative viability ([6]; first compound 20 µM) was 0.338 and the relative viability ([7]; first compound 0.2 µM) was 0.598. It also gave a relative viability ([7]; first compound 0.6325 µM) of 0.59, a relative viability ([7]; first compound 2 µM) of 0.483 and a relative viability ([7]; first compound 6.325 µM) of 0.595. The relative viability ([7]; first compound 20 µM) was 0.565, the relative viability ([8]; first compound 0.2 µM) was 0.494 and the relative viability ([8]; first compound 0.6325 µM) was 0.634. For the same compound, the relative viability ([8]; first compound 2 µM) was 0.722, the relative viability ([8]; first compound 6.325 µM) was 0.718 and the relative viability ([8]; first compound 20 µM) was 0.713. For the same compound, the relative viability ([9]; first compound 0.2 µM) was 1.03, the relative viability ([9]; first compound 0.6325 µM) was 0.945 and the relative viability ([9]; first compound 2 µM) was 0.794. The relative viability ([9]; first compound 6.325 µM) was 0.893, the relative viability ([9]; first compound 20 µM) was 0.887 and the relative viability ([10]; first compound 0.2 µM) was 0.799. For the same compound, the relative viability ([10]; first compound 0.6325 µM) was 0.603, the relative viability ([10]; first compound 2 µM) was 0.56 and the relative viability ([10]; first compound 6.325 µM) was 0.728. It also gave a relative viability ([10]; first compound 20 µM) of 0.675, a relative viability ([11]; first compound 0.2 µM) of 0.747 and a relative viability ([11]; first compound 0.6325 µM) of 0.635. For the same compound, the relative viability ([11]; first compound 2 µM) was 0.457 and the relative viability ([11]; first compound 6.325 µM) was 0.893.
